Consider seven molecules from US20050203011A1, “Mitigating symptoms and behaviors of substance abuse by modulating GDNF or BDNF pathway activity” (The Regents of the University of California, priority 2003, published 2005).

The subject of data set [1] is C57B1/6 mice or BDNF+/+ and BDNF± mice. The data set is described as follows: Ethanol self-administration in mice (two-bottle choice). It is filed as in vivo, mouse. Conditions: for ethanol consumption: wildtype mice. How it is done:
Voluntary ethanol intake in singly-housed adult male C57B1/6 mice or BDNF+/+ and BDNF±mice was established by placing a bottle containing 10% ethanol in tap water (v/v) on the home cage next to an identical bottle filled with tap water for at least 1 month. Only subjects that consumed at least 40% of their total fluid volume as ethanol were included in these studies. All injections (PBS/10% glycerol vehicle, Tat-KEP27, K252a and/or Tat-RACK1) were conducted at 15:00 hours; ethanol and water intake were measured 18 hours later at 09:00 hours. Treatments were tested using a within-subjects design; subjects received one or two injections per week. Chemicals were administered in injection volumes of 1-3 ml per 100 g body weight. The effect of a deprivation period on consumption was tested by allowing mice continuous access to a bottle of 20% ethanol in tap water and a bottle of tap water on the home cage for 2 weeks. The ethanol bottle was removed for 2 weeks. Intake of 20% ethanol and of water was measured for 4 days after the ethanol was reintroduced.

Data set [2] has as its target T1, Trk receptor (Rattus norvegicus, UniProt Q63604).
T1 construct: from tissue; host or cells: striatal slices (dorsal striatum and NAc) of Sprague-Dawley rats
In words: Trk phosphorylation in striatal slices (Western blot). The note with it: 1 μM Tat-RACK1 together with 200 nM K252a, 4 hours. It is filed as cell-based. The method, then: Coronal striatal slices ([…]) were prepared from 3-4 week old male Sprague-Dawley rats. Slices were maintained for at least 1 hour in artificial cerebrospinal fluid (αCSF) containing (in mM): 126 NaCl, 1.2 KCl, 1.2 NaH2PO4, 0.01 MgCl2, 2.4 CaCl2, 18 NaHCO3 and 11 glucose saturated with 95% O2/5% CO2 at […]. […] Brain homogenates were prepared after in vivo protein transduction. Adult C57B1/6 mice were injected i.p. with vehicle or 4 mg/kg of Tat-RACK1. Four hours later, brains were immediately removed and homogenized and protein extracts were prepared as described above.
Samples ([…]) were resolved on a 10% SDS-PAGE and transferred to a nitrocellulose membrane. Membranes were probed with the appropriate antibodies and immunoreactivity was detected with enhanced chemilluminescence (Amersham Bioscience) and processed using the STORM system (Molecular Dynamic).

The conditions of data set [3]: in vivo; cited from earlier work.
The test system of data set [4] is ERK1/2. In words: ERK1/2 phosphorylation in SHSY5Y cells. It is filed as cell-based, human. Conditions: 10 μM ibogaine 3 hours, U0126 20 μM, PD98059 40 μM 30 minutes or PI-PLC 0.3 unit/ml 1 h pre-incubation. The method, then:
ERK2 and pERK1/2 were detected by Western blot analysis with anti-ERK2 and pERK1/2 antibodies respectively. Line-graph depicts the mean ratio (pERK2/ERK2)±SD of 3 experiments. […] Panel C: Cells were pre-incubated with 0.3 unit/ml PI-PLC for 1 h (lane 3).

Data set [5] concerns tyrosine hydroxylase (TH). The data set is described as follows: Tyrosine hydroxylase (TH) protein levels in SHSY5Y cells. It is filed as cell-based, human. How it is done:
Panel A: SHSY5Y cells were treated with different concentrations (0, 10, 25, and 100 mM) of ethanol for 24 hours. TH protein levels and control Actin levels were determined by Western blot analysis. Histogram depicts the mean ratio (TI/actin)±SD of 3 experiments. Panel B: Cells were treated with media (control), 100 ng/ml of GDNF for 12 h (lane 1), 100 mM ethanol for 24 hours (lane 2), or 100 mM ethanol for 24 hours to which 100 ng/ml GDNF was added for the last 12 hours (lane 3). The cells were lysed for Western blot analysis. Histogram depicts the mean ratio (TH/actin)±SD of 3 experiments. […] Histogram depicts the mean ratio (TH/actin)±SD of 3 experiments.

In data set [6] the test system is BDNF. The data set is described as follows: BDNF expression in primary hippocampal cultures (RT-PCR). It is filed as cell-based, rat. The note with it: primary hippocampal neurons. The method, then:
Sprague-Dawley rats (P0) were decapitated and hippocampi were dissected bilaterally. Cells were dissociated by enzyme digestion with papain followed by brief mechanical trituration and plated on poly-D-lysine treated flasks. Cells were plated (1×10^6 cells/chamber) and maintained in Neurobasal media supplemented with B27, penicillin, streptomycin and Glutamax-1 and maintained in culture for 3 weeks. Following treatment, total RNAs were isolated using Trizol reagent and reverse transcribed (RT) using the Reverse Transcription System kit. The RT products were used for analysis of the expression of BDNF and the control gene […] (GPDH) by polymerase chain reaction (PCR) described in (Yaka et al. (2003) J. Biol. Chem. 278: 9630-9638). The PCR products were photographed by Eagle Eye II (Stratagene), and quantified by using NIH Image 1.61.

In data set [7] the test system is primary hippocampal neurons. In words: RACK1 / Tat-RACK1 nuclear localization in primary hippocampal neurons (confocal microscopy). It is filed as cell-based, rat. Conditions: 100 mM ethanol 30 minutes. How it is done:
Primary hippocampal neurons were washed in cold PBS containing 0.1% Triton X-100, fixed in cold methanol and blocked in PBS containing 0.1% Triton X-100 and 3% Normal Goat Serum. lrmunostaining was performed with monoclonal monoclonal IgG HA antibodies (1:150). Staining was detected with anti FITC antibodies (1:500). Nuclei were detected with the nuclear marker TOTO-3 (1: 10000). Slides were viewed with a laser scanning confocal microscope (Zeiss LSM 510 Meta). Z-field images were processed by obtaining the middle Z field sections using LSM 5 Image Browse (Scion Corporation) and Adobe Photoshop (Adobe Systems Inc.). For immunocytochemistry used to detect the presence of Tat-RACK1 in the brain, C57 mice were injected i.p. with vehicle or 4 mg/kg Tat-RACK1. Animals were decapitated 4 hours post injection and brains were quickly removed and frozen at −50° C. in isopentane. Slide-mounted saggital striatal sections ([…]) were immersed for 10 minutes in cold (−20° C.) mixture of 75% methanol and 25% acetone, re-hydrated, rinsed in PBS and incubated in 10% normal donkey serum. Rat monoclonal anti-HA antibody (1:2,000 in PBS) was applied overnight in a humid chamber. […]

Data set [8] has as its system BDNF. In words: BDNF expression in vivo (RT-PCR of tissue punches). Also noted: species or system mouse. The note with it: C57 mice, voluntary consumption of 10% ethanol for 2 weeks. From the text: The primers for NGF were designed as follows: […]
Data set [9] deals with NGF. Conditions: C57 mice, voluntary ethanol consumption, striatum and PFC. The method, then: Adult male C57B1/6 mice were decapitated 3 hours after the start of the dark cycle, for mice with access to ethanol, or 6 hours following i.p. injection of vehicle or Tat-RACK1 (4 mg/kg), for naïve animals. Brains were rapidly removed and bilateral tissue punches of the striatum and PFC were frozen in liquid nitrogen. BDNF, NGF and GPDH expression were analyzed by RT-PCR as described above for hippocampal cultures. The primers for NGF were designed as follows: […]

In data set [10] the test system is BDNF. In words: BDNF secretion from dissociated hippocampal neurons (ELISA). The note with it: 1 μM, 6 hours. It is filed as cell-based, rat. The method, then:
BDNF or NGF secretion was measured in media from dissociated hippocampal neurons or from striatal slices using Emax ImmunoAssay according to (Balkowiec and Katz (2000) J. Neurosci., 20: 7417-7423)) and (Heaton et al. (2003) Brain Res. Dev. Brain Res. 140: 237-252), respectively. BDNF or NGF concentrations were interpolated from the standard curves (linear range of 7.8-500 pg/ml).

Data set [11] concerns Long Evans rats. In words: Ethanol self-administration in rats after intracerebroventricular (i.c.v.) microinjections. It is filed as in vivo, rat. The note with it: i.c.v. microinjection, intake 24 hours after treatment. How it is done:
Adult male Long Evans rats were trained in the two-bottle choice ethanol self-administration procedure as described above for mice. Three weeks after ethanol exposure commenced, a 26 gauge cannula was placed into the right lateral ventricle (stereotaxic coordinates AP: −0.8, ML: −1.4, DV: −3.6, relative to bregma) of anesthetized subjects. Three weeks later, subjects received weekly i.c.v. microinjections of vehicle, Tat-RACK1, or the Tat-peptide (injection volume […]) at approximately 15:30, or 3.5 hours before lights out. Intake was measured 24 hours after treatment. All subjects received vehicle and Tat-RACK1 injections; a subset of subjects was also injected with the Tat-peptide. Cannula locations were verified histologically at the conclusion of the experiment.

T1 sequence (Q63604 32-821): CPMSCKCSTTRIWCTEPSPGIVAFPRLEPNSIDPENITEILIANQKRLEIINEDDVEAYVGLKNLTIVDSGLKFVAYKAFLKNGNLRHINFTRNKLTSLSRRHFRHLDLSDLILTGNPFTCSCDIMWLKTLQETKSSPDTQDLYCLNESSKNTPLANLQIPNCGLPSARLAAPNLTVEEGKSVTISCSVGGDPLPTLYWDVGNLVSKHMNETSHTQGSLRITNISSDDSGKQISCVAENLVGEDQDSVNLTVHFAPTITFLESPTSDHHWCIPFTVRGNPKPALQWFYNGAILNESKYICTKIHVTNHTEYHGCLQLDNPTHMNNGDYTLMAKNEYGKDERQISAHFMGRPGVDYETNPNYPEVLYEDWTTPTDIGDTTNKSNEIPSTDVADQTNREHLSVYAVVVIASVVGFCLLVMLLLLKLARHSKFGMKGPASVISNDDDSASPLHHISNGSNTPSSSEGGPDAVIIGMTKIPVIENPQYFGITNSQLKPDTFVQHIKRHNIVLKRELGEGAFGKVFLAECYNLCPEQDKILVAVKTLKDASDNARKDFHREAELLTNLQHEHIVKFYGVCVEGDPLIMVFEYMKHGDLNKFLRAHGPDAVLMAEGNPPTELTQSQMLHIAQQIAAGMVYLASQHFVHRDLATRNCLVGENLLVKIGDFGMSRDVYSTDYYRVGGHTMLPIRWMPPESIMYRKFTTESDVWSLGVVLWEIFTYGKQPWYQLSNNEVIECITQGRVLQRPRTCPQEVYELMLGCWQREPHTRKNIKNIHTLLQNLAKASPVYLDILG

On to `COC(=O)[C@@]1(O)C[C@H]2O[C@]1(C)n1c3ccccc3c3c4c(c5c6ccccc6n2c5c31)C(=O)NC4` [K252a], for which, in [1] (mice, Tat-RACK1 4 mg/kg + K252a), the “reduction in ethanol intake by Tat-RACK1, co-injection with K252a” value is recorded as “prevented the reduction in ethanol intake”. In addition, the ethanol consumption result in data set [1] (K252a 5 mg/kg i.p.) and in data set [1] (K252a 25 mg/kg i.p.) was “increased” throughout. In addition, in data set [2], the “Tat-RACK1-induced Trk phosphorylation” value was “reduced”.

`CC[C@H]1C[C@H]2C[C@H]3c4[nH]c5ccc(O)cc5c4CCN(C2)[C@@H]13` [Noribogaine]: in data set [3], the “metabolite detection after ibogaine administration” value is given as “detected at high concentrations within 24 hours after administration”.

For `COc1cccc(-c2cc(=O)c3ccccc3o2)c1N` [PD98059], in data set [4], the “ERK1/2 phosphorylation induced by ibogaine” value is given as “blocked”.

`N#CC(=C(/N)Sc1ccccc1N)/C(C#N)=C(\N)Sc1ccccc1N` [U0126]: the “ERK1/2 phosphorylation induced by ibogaine” value in data set [4] is “blocked”.

For `CCO` [ethanol], the “ethanol concentration resulting in an increase in TH immunoreactivity (as low as)” value in data set [5] stood at 10 mM. In [5] (ethanol 24 hours, dose-dependent), the “protein level of TH” value is recorded as “significant increase”. In addition, the “ethanol concentrations (as low as) that increased BDNF expression” value in data set [6] (0.5 hours) was 10 to 25 mM. Besides, the “expression levels of BDNF” value in data set [6] (acute ethanol, dose- and time-dependent) is “increased”. Further, in data set [6] (continuous ethanol 24 or 48 hours), the BDNF expression entry is “reduced BDNF expression to below basal levels”. Also, the RACK1 nuclear translocation result in [7] was “translocation of RACK1 into the nucleus”. In data set [8], the “expression levels of BDNF in the prefrontal cortex (PFC)” value is “but not the prefrontal cortex” and the “expression levels of BDNF in the striatum” value was “significantly increased”. Also, the “expression of NGF” value in data set [9] is “no change”.

For the molecule YGRKKRRQRRR [Tat-peptide], in [10], the “secretion of BDNF” value is reported as “no change”. The ethanol intake result in data set [11] is listed as “no effect”.

B1: GDNF: Human glial-cell line derived neurotrophic factor (protein)
chain: SPDKQMAVLPRRERNRQAAAANPENSRGKGRRGQRGKNRGCVLTAIHLNVTDLGLGYETKEELIFRYCSGSCDAAETTYDKILKNLSRNRRLVSDKVGQACCRPIAFDDDLSFLDDNLVYHILRKHSAKRCGCI
Consider B1, for which the “ethanol-induced increase in TH immunoreactivity” value in [5] (100 mM ethanol 24 hours, GDNF 100 ng/ml or ibogaine 10 μM added for last 12 hours) is on record as “inhibited”.
